Reference: PubChem BioAssay AID330 (DTP/NCI, 2004)
“And” between values parts separate entries of the source, which are not always exact repeats. Equal entries are not always repeated. Toxic doses and inconclusive results are not listed. How the source made its calls: active means survival T/C of 150% or more; inactive means T/C below 125% in these data.

Test system: P388 leukemia ip, CD2F1 mice, survival T/C
Assay: NCI In Vivo Anticancer Drug Screen. Data for tumor model P388 Leukemia (intraperitoneal) in CD2F1 (CDF1) mice
Details: endpoint: median survival time, higher = longer survival
Summary of the method: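 Mice carrying the transplanted tumor received test compound or vehicle. Survival was recorded in each group, and the value is the treated-group measurement divided by that of the vehicle-treated control group.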

[1] = dose: 100.0 mg/kg/injection, schedule: Q04DX003 (ip), vehicle: saline with Tween-80
[2] = dose: 12.5 mg/kg/injection, schedule: Q01DX009 (ip), vehicle: saline with Tween-80
[3] = dose: 25.0 mg/kg/injection, schedule: Q01DX009 (ip), vehicle: saline with Tween-80
[4] = dose: 50.0 mg/kg/injection, schedule: Q01DX009 (ip), vehicle: saline with Tween-80
[5] = dose: 50.0 mg/kg/injection, schedule: Q01DX009 (ip), vehicle: other

Measured: T/C

CCC1=C(NCc2ccccc2)COC1=O
inactive: dose: 50.0 mg/kg/injection, schedule: Q01DX001 (ip), vehicle: Klucel (hydroxypropylcellulose) (HPC) 100 % of control | dose: 100.0 mg/kg/injection, schedule: Q01DX001 (ip), vehicle: Klucel (hydroxypropylcellulose) (HPC) 101 % of control | dose: 200.0 mg/kg/injection, schedule: Q01DX001 (ip), vehicle: Klucel (hydroxypropylcellulose) (HPC) 100 % of control

CCC1OCCN1C(C)C (stereo not given)
inactive: [1] 104 % of control | dose: 200.0 mg/kg/injection, schedule: Q04DX003 (ip), vehicle: saline with Tween-80 100 % of control

C(=C\c1ccccc1)/CN1CCN(C(c2ccccc2)c2ccccc2)CC1
inactive: dose: 50.0 mg/kg/injection, schedule: Q01DX009 (ip), vehicle: Klucel (hydroxypropylcellulose) (HPC) 97 % of control | dose: 100.0 mg/kg/injection, schedule: Q01DX009 (ip), vehicle: Klucel (hydroxypropylcellulose) (HPC) 94 % of control | dose: 200.0 mg/kg/injection, schedule: Q01DX009 (ip), vehicle: Klucel (hydroxypropylcellulose) (HPC) 90 % of control

CC(=O)Nc1ccc(S(=O)(=O)N/N=C/c2cccc([N+](=O)[O-])c2O)cc1
inactive: dose: 60.0 mg/kg/injection, schedule: Q01DX005 (ip), vehicle: saline with Tween-80 104 % of control | dose: 120.0 mg/kg/injection, schedule: Q01DX005 (ip), vehicle: saline with Tween-80 104 % of control | dose: 240.0 mg/kg/injection, schedule: Q01DX005 (ip), vehicle: saline with Tween-80 103 % of control

CC(C#N)CCCC#N (stereo not given)
inactive: [2] 100 % of control | [3] 100 % of control | [4] 100 % of control

CCOC(=O)C(C(=O)OCC)c1nc[nH]c1[N+](=O)[O-]
inactive: dose: 25.0 mg/kg/injection, schedule: Q04DX003 (ip), vehicle: saline with Tween-80 108 % of control | dose: 50.0 mg/kg/injection, schedule: Q04DX003 (ip), vehicle: saline with Tween-80 104 % of control | [1] 100 % of control and 97 % of control

CNC(=S)N=Nc1c(O)[nH]c2ccccc12
inactive: dose: 50.0 mg/kg/injection, schedule: Q01DX009 (ip), vehicle: saline 91 % of control | dose: 100.0 mg/kg/injection, schedule: Q01DX009 (ip), vehicle: saline 99 % of control | dose: 200.0 mg/kg/injection, schedule: Q01DX009 (ip), vehicle: saline 91 % of control

CSc1nccc2ccccc12
inactive: dose: 12.5 mg/kg/injection, schedule: Q01DX009 (ip), vehicle: other 96 % of control | dose: 25.0 mg/kg/injection, schedule: Q01DX009 (ip), vehicle: other 93 % of control | [5] 118 % of control

C[n+]1ccc2cc(-c3ccccc3)c3ccccc3c2c1
inactive: dose: 1.56 mg/kg/injection, schedule: Q01DX009 (ip), vehicle: saline 109 % of control | dose: 3.13 mg/kg/injection, schedule: Q01DX009 (ip), vehicle: saline 116 % of control | dose: 6.25 mg/kg/injection, schedule: Q01DX009 (ip), vehicle: saline 109 % of control

CCOC(=O)c1cnc2cc(F)ccc2c1Nc1ccc2c(c1)OCO2
inactive: dose: 60.0 mg/kg/injection, schedule: Q01DX005 (ip), vehicle: Klucel (hydroxypropylcellulose) (HPC) 99 % of control | dose: 120.0 mg/kg/injection, schedule: Q01DX005 (ip), vehicle: Klucel (hydroxypropylcellulose) (HPC) 97 % of control | dose: 240.0 mg/kg/injection, schedule: Q01DX005 (ip), vehicle: Klucel (hydroxypropylcellulose) (HPC) 105 % of control

c1ccc(SC2=C(Sc3ccccc3)CC2)cc1
inactive: dose: 50.0 mg/kg/injection, schedule: Q01DX005 (ip), vehicle: saline with Tween-80 102 % of control | dose: 100.0 mg/kg/injection, schedule: Q01DX005 (ip), vehicle: saline with Tween-80 111 % of control | dose: 200.0 mg/kg/injection, schedule: Q01DX005 (ip), vehicle: saline with Tween-80 102 % of control

Clc1ccc(NCc2ccc(CNc3ccc(Cl)cc3)cc2)cc1
inactive: dose: 6.25 mg/kg/injection, schedule: Q01DX009 (ip), vehicle: saline with Tween-80 98 % of control | [2] 91 % of control | [3] 91 % of control | [4] 97 % of control

COC(=O)OCC#Cc1ccccc1
inactive: dose: 50.0 mg/kg/injection, schedule: Q04DX002 (ip), vehicle: saline with Tween-80 100 % of control | dose: 100.0 mg/kg/injection, schedule: Q04DX002 (ip), vehicle: saline with Tween-80 108 % of control | dose: 200.0 mg/kg/injection, schedule: Q04DX002 (ip), vehicle: saline with Tween-80 112 % of control

O=[N+]([O-])c1ccccc1NN=NCCF
inactive: dose: 3.12 mg/kg/injection, schedule: Q01DX005 (ip), vehicle: Klucel (hydroxypropylcellulose) (HPC) 100 % of control | dose: 6.25 mg/kg/injection, schedule: Q01DX005 (ip), vehicle: Klucel (hydroxypropylcellulose) (HPC) 100 % of control | dose: 12.5 mg/kg/injection, schedule: Q01DX005 (ip), vehicle: Klucel (hydroxypropylcellulose) (HPC) 109 % of control

C(#CCOc1ccc2c(c1)OCO2)COc1ccc2c(c1)OCO2
inactive: [5] 103 % of control | dose: 100.0 mg/kg/injection, schedule: Q01DX009 (ip), vehicle: other 104 % of control | dose: 200.0 mg/kg/injection, schedule: Q01DX009 (ip), vehicle: other 105 % of control
